Assay results taken from article PMC12298351, “Novel 3,19-(N-Phenyl-3-(4-fluorophenyl)-pyrazole) Acetal of Andrographolide Promotes Cell Cycle Arrest and Apoptosis in MDA-MB-231 Breast Cancer Cells” (Pharmaceuticals, 2025).

What was measured:
[1] = tested on: 60 human cancer cell lines; test: NCI single-dose study; format: cell-based; conditions: single dose 10 µM, all 60 cell lines
Excerpt: All the synthesized compounds (1a–1j and 2a–2j) were initially assessed for their anticancer potential at the National Cancer Institute (NCI, USA) against a diverse panel of 60 human cancer cell lines, representing nine distinct cancer types including leukemia, non-small-cell lung, colon, CNS, melanoma, ovarian, renal, prostate, and breast. The testing protocol employed by the NCI encompasses two stages: initial assessment at a single dose and subsequent evaluation at five doses.
Initially, a comprehensive anticancer screening of all twenty compounds (1a–1j and 2a–2j), including the parent compounds ADG and ISOADG, was conducted using a 10 µM dose across all 60 cell lines (a standardized protocol followed for the initial assessment of test compounds by the NCI). […] As a result, these ten compounds were chosen for five-dose studies.

[2] = DPPH radical scavenging assay; conditions: 25 µM test compound, 0.1 mM DPPH, acetonitrile, 30 min
Procedure: A stable free radical DPPH (2,2-Diphenyl-1-picrylhydrazyl) assay was employed to test the antioxidant activity of all the synthesized compounds. Concisely, 25 µM of the test compounds were dissolved in acetonitrile and combined with 0.1 mM of DPPH (in acetonitrile) in a 1:2 ratio (80 µL and 160 µL). Then, the mixture was left undisturbed in the dark for 30 min at room temperature. After 30 min, the absorbance of the solutions was instantly measured at 517 nm using a Varioskan Multiplate Reader (Thermo Fisher Scientific, Mumbai, India). Ascorbic acid (in acetonitrile) was used as the positive control, and andrographolide and isoandrogapholide (in acetonitrile) were used as the standards. The following equation was used to determine the DPPH radical scavenging activity:% Radical scavenging activity = (Ac − As)/Ac × 100 where Ac = the absorbance of the blank (DPPH solution), and As = the absorbance of the test samples

Compound | % growth inhibition [1] | % DPPH radical scavenging activity [2]
C=C1CC[C@@H]2[C@](C)(CO)[C@H](O)CC[C@@]2(C)[C@@H]1C/C=C1/C(=O)OC[C@H]1O [ADG, andrographolide] | lower % growth inhibition | 58.74%
CC12CC[C@@H]3[C@](C)(CO)[C@H](O)CC[C@@]3(C)[C@@H]1CC(C1=CCOC1=O)O2 (some centres unmarked) [ISOADG, isoandrographolide, reference compound] | lower % growth inhibition | 57.94%
O=C1O[C@H]([C@@H](O)CO)C(O)=C1O [ascorbic acid, reference compound] |  | 69.26%
